We go through 5 compounds from US20040052837A1, “Lipid conjugated anti-cancer drugs and methods of use thereof” (priority 2002, published 2004).

Read-outs that look alike come from different tables or passages of the source.

The test system of one data set is T27A cells. Put plainly: Inhibition of T27A cell proliferation by [3H]thymidine incorporation. In kind it is cell-based, murine. How it is done: The murine non-T non-B leukemia cell line T27A (ATCC, Rockville, Md., USA) was cultured in RPMI 1640 medium (Gibco/BRI, Gaithersburg, Md.) supplemented with 25 mM HEPES buffer, 2 mM glutamine, 100 U penicillin/ml, 100 μg streptomycin/ ml and 2 or 10% bovine calf serum (Hyclone, Logan, Utah) in a humidified 5% CO2 atmosphere. Cell viability was determined by Trypan blue exclusion.
DHA (NuChek Prep, Elysan, Minn.) was introduced into RPMI 1640 medium supplemented with 1% (w/v) fatty acid-free bovine serum albumin (Sigma) as described by Spector and Hoak (33) with modifications we have reported (34).
Liposomes were prepared fresh for each use. The bulk of the lipids was 18:0, 18:1 PC (up to 90 mol %), with 10 mol % 18:0, 18:1 PE added to augment fusion between liposomes and the cell-surface membrane. The control contained no additional lipids; the experimental groups contained up to an additional 15 mol % 18:0, 22:6 PC or up to 0.43 mol % 18:0, MTX-PC or 22:6, MTX-PC. The solvent was evaporated under nitrogen and the lipids dried under vacuum for 2 h. The lipids were rehydrated in RPMI medium, and multilamellar vesicles were prepared by vortexing 1 ml of lipids at a concentration of 2 mg/ml. Liposomes (small unilamellar vesicles) were created by sonicating the multilamellar vesicles for 15 min on ice under nitrogen with a Heat Systems W380 disruptor (Farmingdale, N.Y.) set at 1 s cycle time, 60% duty and 3-7% output. Liposome suspensions were centrifuged at low speed (3700 r.p.m.; 2300 g) to remove particulate material and sterile filtered through a 0.2-μm filter. An aliquot of each liposome preparation was tested by thin-layer chromatography to assure that hydrolysis had not occurred.
All concentrations given are final concentrations in the wells. […] Control liposomes were made from 1 mM 18:0, 18:1 PC/ 18:0, 18:1 PE (9/1, mol:mol). After 6 h of incubation, 0.5 μCi/well of [^3H]thymidine (2 Ci/mmol; Amersham, Arlington Heights, Ill.) was added and the incubation continued for an additional 18 h. Cells were then harvested onto glass fiber filters (PHD Cell Harvester; Cambridge Technology, Watertown, Mass.) and the radioactivity present in DNA on the filters was measured by liquid scintillation counting.
The IC50 for each agent alone was determined by non-linear curve fitting with the software package SigmaPlot (SPSS, Chicago, Ill.).
In general terms: Incorporation of labelled thymidine or its analogues reports DNA synthesis.

The conditions of data set [1]: previous study (26); cited from earlier work.
A further data set has as its system human neoplastic cells. To be noted: (1); cited from earlier work.
For data set [2] the following is noted: (35); cited from earlier work.
Data set [3] relates to several different cell types. Conditions: variety of assays in vitro (11, 37-39); cited from earlier work.
Where [4] appears, read: lipid included in liposomes of 1 mM 18:0,18:1 PC/18:0,18:1 PE (9:1), 24 h, read-out: IC50, inhibition of proliferation.

Take `CCCCCCCCCCCCCCCCCC(=O)OC[C@H](COP(=O)([O-])OCC[N+](C)(C)C)OC(=O)CC[C@H](NC(=O)c1ccc(N(C)Cc2cnc3nc(N)nc(N)c3n2)cc1)C(=O)O` [18:0, MTXγ-PC]: in the data set on T27A cells (setting [4]), the IC50 stood at 2110 nM.

With `CC/C=C\C/C=C\C/C=C\C/C=C\C/C=C\C/C=C\CCC(=O)OC[C@H](COP(=O)([O-])OCC[N+](C)(C)C)OC(=O)CC/C=C\C/C=C\C/C=C\C/C=C\C/C=C\C/C=C\CC` [22:6, 22:6 PC, 1,2-didocosahexaenoyl-sn-glycero-3-phosphocholine], in data set [1], the direct cytotoxicity result is “comparable to 18:0, 22:6 PC”.

Regarding `CC/C=C\C/C=C\C/C=C\C/C=C\C/C=C\C/C=C\CCC(=O)OC[C@H](COP(=O)([O-])OCC[N+](C)(C)C)OC(=O)CC[C@H](NC(=O)c1ccc(N(C)Cc2cnc3nc(N)nc(N)c3n2)cc1)C(=O)O` [22:6, MTXγ-PC], in the data set with T27A cells (setting [4]), the IC50 was found to be 1190 nM. The “potency as inhibitor of cell proliferation relative to 18:0, MTXγ-PC” value in the data set with T27A cells (liposomes with up to 0.43 mol % (4.2 μM) MTXγ-PC, 24 h) is “more potent inhibitor of cell proliferation than 18:0, MTXγ-PC”. Further, the “inhibition relative to 18:0, MTXγ-PC” value with T27A cells (low concentrations, below 1.5 μM, in liposomes) was “significantly more inhibitory than 18:0, MTXγ-PC”.

In the case of `CC/C=C\C/C=C\C/C=C\C/C=C\C/C=C\C/C=C\CCC(=O)O` [DHA, docosahexaenoic acid], in the data set with T27A cells (220 μM DHA alone), the “% of maximal proliferation” value came out at 57%. Besides, in the data set on T27A cells (Mus musculus, [DHA] 25 μM), the predicted % inhibition at 25 µM is 4.9%. In addition, the predicted % inhibition at 50 µM in the data set with T27A cells (Mus musculus, [DHA] 50 μM) is 9.8%. Besides, in the data set on T27A cells (Mus musculus, [DHA] 100 μM), the predicted % inhibition at 100 µM was 19.7%. Also, the predicted % inhibition at 150 µM in the data set on T27A cells (Mus musculus, [DHA] 150 μM) was 29.5%. Also, the predicted % inhibition at 200 µM in the data set with T27A cells (Mus musculus, [DHA] 200 μM) is 39.3%. For the same compound, the IC50 with T27A cells (Mus musculus, albumin-bound DHA not conjugated to phospholipids, 24 h, 2% serum, read-out: IC50, inhibition of [3H]thymidine incorporation) came out at 211000 nM. For the same compound, the “IC50 with albumin delivery relative to IC50 for DHA delivered in ethanol” value in the data set with T27A cells (albumin versus ethanol delivery) is “about 5 times”.

As for `CN(Cc1cnc2nc(N)nc(N)c2n1)c1ccc(C(=O)N[C@@H](CCC(=O)O)C(=O)O)cc1` [MTX, methotrexate], in the data set on T27A cells (30 nM MTX alone), the “% of maximal proliferation” value was 52%. In addition, the IC50 in the data set with T27A cells (Mus musculus, 24 h, read-out: IC50 (dose for 50% inhibition of proliferation)) is 30.6 nM. The “Inhibition (Predicted; %)” value with T27A cells ([MTX] 2.7 nm) is listed as 4.3%; in the data set on T27A cells ([MTX] 9.5 nm) it was 15.2%; with T27A cells ([MTX] 16.5 nm), 26.3%; in the data set on T27A cells ([MTX] 23.3 nm), 37.2%; with T27A cells ([MTX] 26.7 nm), 42.6%. The “level at which toxic” value in the data set with human neoplastic cells was 20 nM. Further, the “pKa of α-carboxyl group” value in data set [2] is recorded as 3.35. For the same compound, in data set [3], the “range of inhibitory doses reported” value was 15 to 240 nM.
